The values below come from the Kinase Knowledgebase extract (Sharma et al. 2016).

The target of assay [1] is CDK2 (human) (UniProt P24941). The experiment in a line: Enzyme Assay.
The target in assay [2] is CDK2 (human) (UniProt P24941). The experiment in a line: Cell-Based Assay.
Assay [3] has as its target CDK2 (human) (UniProt P24941). The experiment in a line: Cell-Based Assay. To be noted: rko.

The term IC50 denotes the concentration at which inhibition is half-maximal. A low value points to higher potency.

In the case of `CCC(C)Cc1cccc2c1C(=NNc1ccc(S(N)(=O)=O)cc1)C(=O)N2` (configuration not stated), the IC50 at CDK2 (human) [1] was determined as 5.5 nM; against CDK2 (human) [2] (hdf-3) it was 3050 nM; against CDK2 (human) [2] (rko), 3050 nM.

Turning to `NS(=O)(=O)c1ccc(NN=C2C(=O)Nc3ccc(-c4cnco4)cc32)cc1`, the IC50 against CDK2 (human) [1] amounted to 5.5 nM; at CDK2 (human) [3] it was 800 nM; on CDK2 (human) [2] (hdf), 3050 nM; on CDK2 (human) [2] (hdf-3), 800 nM; against CDK2 (human) [2] (mes/sa), 300 nM; against CDK2 (human) [2] (rko), 800 nM.

For `CNS(=O)(=O)Cc1ccc(NN=C2C(=O)Nc3cc(C)c(O)c(C)c32)cc1`, the IC50 against CDK2 (human) [1] amounted to 75.5 nM; against CDK2 (human) [3], 300 nM; against CDK2 (human) [2] (hdf), 800 nM; at CDK2 (human) [2] (hdf-3), 3050 nM; at CDK2 (human) [2] (rko) it was 300 nM.

For the compound `CS(=O)(=O)Cc1ccc(N/C=C2\C(=O)Nc3ccc4ncsc4c32)cc1`, the IC50 was determined as 30.5 nM at CDK2 (human) [1], 3050 nM on CDK2 (human) [2] (hdf-3), 3050 nM on CDK2 (human) [2] (mes/sa) and 3050 nM against CDK2 (human) [2] (rko).

In the case of `CN(C)S(=O)(=O)c1ccc(N/C=C2\C(=O)Nc3ccc(-c4cnco4)cc32)cc1`, the results for the IC50 at CDK2 (human) [1], on CDK2 (human) [3] and on CDK2 (human) [2] (rko) were 5.5 nM, 3050 nM and 3050 nM, respectively.

On to `CNS(=O)(=O)Cc1ccc(NN=C2C(=O)Nc3ccc4ncccc4c32)cc1`, for which the IC50 against CDK2 (human) [1] was found to be 5.5 nM; against CDK2 (human) [2] (hdf-3), 3050 nM; against CDK2 (human) [2] (rko), 3050 nM.

Turning to `O=C1Nc2ccc3ncsc3c2/C1=C/Nc1ccc2nn[nH]c2c1`, the IC50 was 30.5 nM against CDK2 (human) [1] and 3050 nM against CDK2 (human) [2] (mda-mb-468).

`CN(C)S(=O)(=O)c1ccc(N/C=C2/C(=O)Nc3ccc(-c4cnco4)cc32)cc1`: at CDK2 (human) [2] (mda-mb-468), the IC50 is over 5000 nM.
